From patent US20240199605A1, “SMALL MOLECULAR INHIBITORS OF NF-kB INDUCING KINASE” (Janssen Pharmaceutica NV, priority 2019, published 2024)

Experiments:
[1] = biological target: recombinant human NF-kappaB-inducing kinase (NIK/MAP3K14) (Homo sapiens (Human), UniProt Q99558); experiment: Inhibition of auto-phosphorylation of recombinant human NIK/MAP3K14 (AlphaScreen); format: biochemical; settings: NIK auto-phosphorylation, 5 μM ATP, 1 nM NIK, 2 h at 25° C.; average of values
In short: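 AlphaScreen read-out (anti-phospho-IKK Ser176/180 antibody, Protein A acceptor and glutathione donor beads) of NIK auto-phosphorylation. Reaction: 1 nM enzyme, 5 μM ATP, Tris pH 7.5 buffer with Mg2+ and vanadate, 2 h at 25° C., final DMSO 0.7%. IC50 came from a sigmoidal curve fit.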

[2] = tested on: p-IKKα levels in L363 (NIK translocated multiple myeloma) cells; experiment: Effect of compounds on p-IKKα levels in L363 cells (AlphaLISA SureFire Ultra); format: cell-based, human; settings: Homo sapiens, L-363, 6 h, BAFF stimulated, MG132, 6 h, average of values, read-out: Assay 2 IC50
In short: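 Inhibition of p-IKKα (Ser176/180) read by AlphaLISA after 6 h, 37 °C compound exposure (11-point 1:3 series, 0.3% DMSO) of L363 cells pre-incubated overnight ± 250 ng/ml BAFF and plated ± BAFF ± 10 μM MG132. Normalised to BAFF/MG132/DMSO and unstimulated controls; IC50 by sigmoidal fitting, duplicates.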

Chain of recombinant human NF-kappaB-inducing kinase (NIK/MAP3K14) (Q99558 whole entry): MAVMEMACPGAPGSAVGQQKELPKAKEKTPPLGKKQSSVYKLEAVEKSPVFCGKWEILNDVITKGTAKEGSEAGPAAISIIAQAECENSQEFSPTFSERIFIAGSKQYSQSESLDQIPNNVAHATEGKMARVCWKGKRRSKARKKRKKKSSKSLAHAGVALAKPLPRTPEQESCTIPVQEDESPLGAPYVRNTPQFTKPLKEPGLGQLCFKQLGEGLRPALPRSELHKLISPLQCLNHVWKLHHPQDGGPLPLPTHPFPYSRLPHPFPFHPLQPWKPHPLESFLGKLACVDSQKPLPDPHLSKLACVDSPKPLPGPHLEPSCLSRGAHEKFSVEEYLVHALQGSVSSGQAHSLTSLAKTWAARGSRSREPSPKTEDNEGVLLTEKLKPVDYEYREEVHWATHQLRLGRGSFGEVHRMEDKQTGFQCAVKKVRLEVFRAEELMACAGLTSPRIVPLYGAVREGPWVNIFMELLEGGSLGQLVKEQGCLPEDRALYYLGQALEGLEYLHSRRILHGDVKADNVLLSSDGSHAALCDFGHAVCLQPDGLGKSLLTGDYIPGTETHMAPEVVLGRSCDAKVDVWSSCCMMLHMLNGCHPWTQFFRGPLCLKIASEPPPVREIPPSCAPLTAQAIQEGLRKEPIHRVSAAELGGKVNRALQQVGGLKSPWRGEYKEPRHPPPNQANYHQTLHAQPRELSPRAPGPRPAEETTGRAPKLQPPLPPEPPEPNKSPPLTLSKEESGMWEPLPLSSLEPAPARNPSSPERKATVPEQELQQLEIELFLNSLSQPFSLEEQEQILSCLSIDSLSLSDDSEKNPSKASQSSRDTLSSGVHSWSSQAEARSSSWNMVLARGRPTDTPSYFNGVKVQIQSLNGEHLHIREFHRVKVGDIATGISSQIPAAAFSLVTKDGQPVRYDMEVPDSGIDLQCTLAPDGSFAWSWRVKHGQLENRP

IC50 [1]	IC50 [2]	Compound
1510 nM	> 5000 nM	CN1CC[C@@](O)(C#Cc2cccc(-c3ccc4ncnc(C#N)c4n3)c2)C1=O [Example 279, (R)-6-(3-((3-Hydroxy-1-methyl-2-oxopyrrolidin-3-yl)ethynyl)phenyl)pyrido[3,2-d]pyrimidine-4-carbonitrile]
0.9 nM	11 nM	CN1CC[C@@](O)(C#Cc2cccc(-c3cc(-n4cccn4)c4ncnc(N)c4n3)c2)C1=O [Example 303, (R)-3-[2-[3-(4-Amino-8-pyrazol-1-yl-pyrido[3,2-d]pyrimidin-6-yl)phenyl]ethynyl]-3-hydroxy-1-methyl-pyrrolidin-2-one]
≤ 0.5 nM	11 nM	Cc1cc(-c2cccc(C#C[C@]3(O)CCN(C)C3=O)c2)cc2c(N)ncnc12 [Example 110, (R)-3-((3-(4-Amino-8-methylquinazolin-6-yl)phenyl)ethynyl)-3-hydroxy-1-methylpyrrolidin-2-one]
31 nM	> 2000 nM	Cc1cnc(C)c2nc(-c3cccc(C#C[C@]4(O)CCN(C)C4=O)c3)ccc12 [Example 252, (R)-3-((3-(5,8-Dimethyl-1,7-naphthyridin-2-yl)phenyl)ethynyl)-3-hydroxy-1-methylpyrrolidin-2-one]
≤ 0.5 nM	3.6 nM	CN1CC[C@@](O)(C#Cc2cccc(-c3cc(-c4cccs4)c4ncnc(N)c4n3)c2)C1=O [Example 311, (R)-3-((3-(4-Amino-8-(thiophen-2-yl)pyrido[3,2-d]pyrimidin-6-yl)phenyl)ethynyl)-3-hydroxy-1-methylpyrrolidin-2-one]
≤ 0.5 nM	92 nM	CN1CC[C@@](O)(C#Cc2cccc(-c3cc(F)c4ncnc(N)c4c3)c2)C1=O [Example 113, (R)-3-[2-[3-(4-Amino-8-fluoro-quinazolin-6-yl)phenyl]ethynyl]-3-hydroxy-1-methyl-pyrrolidin-2-one]
0.7 nM	6.1 nM	CNc1nc(-c2cccc(C#C[C@]3(O)CCN(C)C3=O)c2)nc2c(N)nccc12 [Example 85, (R)-3-((3-(8-Amino-4-(methylamino)pyrido[3,4-d]pyrimidin-2-yl)phenyl)ethynyl)-3-hydroxy-1-methylpyrrolidin-2-one]
1.4 nM	140 nM	Cc1cc2cnc(-c3cccc(C#C[C@]4(O)CCc5cccnc54)c3)nc2c(N)n1 [Example 63, (R)-7-((3-(8-amino-6-methylpyrido[3,4-d]pyrimidin-2-yl)phenyl)ethynyl)-6,7-dihydro-5H-cyclopenta[b]pyridin-7-ol]
680 nM	3700 nM	Cc1nc(N)c2nc(-c3cccc(C#C[C@@]4(O)C[C@H](C)N(C)C4=O)c3)ccc2n1 [Example 266, (3S,5S)-3-((3-(4-Amino-2-methylpyrido[3,2-d]pyrimidin-6-yl)phenyl)ethynyl)-3-hydroxy-1,5-dimethylpyrrolidin-2-one]
14 nM	1450 nM	Cc1nnc([C@](C)(O)C#Cc2cccc(-c3ccc4ncnc(N)c4c3)c2)o1 [Example 106, (R)-4-[3-(4-Aminoquinazolin-6-yl)phenyl]-2-(5-methyl-1,3,4-oxadiazol-2-yl)but-3-yn-2-ol]
850 nM	> 5000 nM	CN1CC[C@@](O)(C#Cc2cccc(-c3ncc4ccnc(N5CCC5)c4n3)c2)C1=O [Example 247, (R)-3-((3-(8-(Azetidin-1-yl)pyrido[3,4-d]pyrimidin-2-yl)phenyl)ethynyl)-3-hydroxy-1-methylpyrrolidin-2-one]
3.8 nM	190 nM	Cc1nc(N)c2nc(-c3cccc(C#C[C@]4(O)CCCN(C)C4=O)c3)ccc2n1 [Example 187, (R)-3-((3-(4-Amino-2-methylpyrido[3,2-d]pyrimidin-6-yl)phenyl)ethynyl)-3-hydroxy-1-methylpiperidin-2-one]
2 nM	49 nM	COc1ccc(C#C[C@]2(O)CCN(C)C2=O)cc1-c1ncc2ccnc(N)c2n1 [Example 53, (R)-3-((3-(8-Aminopyrido[3,4-d]pyrimidin-2-yl)-4-methoxyphenyl)ethynyl)-3-hydroxy-1-methylpyrrolidin-2-one]
1.5 nM	69 nM	CN1CC[C@@](O)(C#Cc2cccc(-c3ccc4ncnc(N5CC(F)C5)c4n3)c2)C1=O [Example 239, (R)-3-((3-(4-(3-Fluoroazetidin-1-yl)pyrido[3,2-d]pyrimidin-6-yl)phenyl)ethynyl)-3-hydroxy-1-methylpyrrolidin-2-one]
2370 nM	> 5000 nM	Cc1nc(N)c2nc(-c3cccc(C#C[C@](C)(O)c4nc(C(F)(F)F)cs4)c3)ccc2n1 [Example 193, (S)-4-(3-(4-Amino-2-methylpyrido[3,2-d]pyrimidin-6-yl)phenyl)-2-(4-(trifluoromethyl)thiazol-2-yl)but-3-yn-2-ol]
1170 nM	> 5000 nM	CN1CC[C@@](O)(C#Cc2cccc(-n3cc4c(N)ncnc4n3)c2)C1=O [Example 179, (R)-3-((3-(4-Amino-2H-pyrazolo[3,4-d]pyrimidin-2-yl)phenyl)ethynyl)-3-hydroxy-1-methylpyrrolidin-2-one]
4.3 nM	480 nM	CN1CC[C@@](O)(C#Cc2cccc(-c3ccc4[nH]nc(N)c4n3)c2)C1=O [Example 22, (R)-3-[2-[3-(3-Amino-1H-pyrazolo[4,3-b]pyridin-5-yl)phenyl]ethynyl]-3-hydroxy-1-methyl-pyrrolidin-2-one]
0.6 nM	12 nM	Cc1nc(N)c2nc(-c3cccc(C#C[C@]4(O)CCN(C)C4=O)c3)ccc2n1 [Example 6, (R)-3-((3-(4-Amino-2-methylpyrido[3,2-d]pyrimidin-6-yl)phenyl)ethynyl)-3-hydroxy-1-methylpyrrolidin-2-one]
≤ 0.5 nM	8.9 nM	[2H]c1nc(N)c2nc(-c3cccc(C#C[C@@]4(O)C(=O)N(C)[C@@H]5C[C@@H]54)c3)ccc2n1 [Example 276, (1R,4R,5S)-4-((3-(4-Aminopyrido[3,2-d]pyrimidin-6-yl-2-d)phenyl)ethynyl)-4-hydroxy-2-methyl-2-azabicyclo[3.1.0]hexan-3-one]
16 nM	900 nM	Cc1nc(N)c2c(n1)CCN(c1cccc(C#C[C@]3(O)CCN(C)C3=O)c1)C2 [Example 215, (R)-3-((3-(4-Amino-2-methyl-7,8-dihydropyrido[4,3-d]pyrimidin-6(5H)-yl)phenyl)ethynyl)-3-hydroxy-1-methylpyrrolidin-2-one]
6.6 nM	480 nM	Cc1nc(-c2cccc(C#C[C@]3(O)CCN(CC(F)(F)F)C3=O)c2)nc2c(N)nccc12 [Example 92, (R)-3-[2-[3-(8-Amino-4-methyl-pyrido[3,4-d]pyrimidin-2-yl)phenyl]ethynyl]-3-hydroxy-1-(2,2,2-trifluoroethyl)pyrrolidin-2-one]
5.7 nM	210 nM	CN1CC[C@@](O)(C#Cc2cccc(-c3ccc4ncnc(N5CC(F)(F)C5)c4n3)c2)C1=O [Example 232, (R)-3-((3-(4-(3,3-Difluoroazetidin-1-yl)pyrido[3,2-d]pyrimidin-6-yl)phenyl)ethynyl)-3-hydroxy-1-methylpyrrolidin-2-one]
≤ 0.5 nM	17 nM	Cc1cnc(N)c2nc(-c3cccc(C#C[C@@](C)(O)c4nccs4)c3)ncc12 [Example 50, (R)-4-(3-(8-Amino-5-methylpyrido[3,4-d]pyrimidin-2-yl)phenyl)-2-(thiazol-2-yl)but-3-yn-2-ol]
≤ 0.5 nM	6.1 nM	CN1CC[C@@](O)(C#Cc2cccc(-c3ncc4c(C#N)cnc(N)c4n3)c2)C1=O [Example 100, (R)-8-Amino-2-(3-((3-hydroxy-1-methyl-2-oxopyrrolidin-3-yl)ethynyl)phenyl)pyrido[3,4-d]pyrimidine-5-carbonitrile]
7.4 nM	320 nM	CN1CC[C@@](O)(C#Cc2cccc(-c3ccc4ncnc(N5CC(C#N)C5)c4n3)c2)C1=O [Example 242, (R)-1-(6-(3-((3-Hydroxy-1-methyl-2-oxopyrrolidin-3-yl)ethynyl)phenyl)pyrido[3,2-d]pyrimidin-4-yl)azetidine-3-carbonitrile]
42 nM	1600 nM	O=c1[nH]ccc2cnc(-c3cccc(C#CC4(O)CCc5cccnc54)c3)nc12 (stereo in doubt) [Example 47, (R)-2-[3-[2-(7-Hydroxy-5,6-dihydrocyclopenta[b]pyridin-7-yl)ethynyl]phenyl]-7H-pyrido[3,4-d]pyrimidin-8-one]
13 nM	> 5000 nM	CN1CC[C@@](O)(C#Cc2cccc(-c3cnc4ncnc(N)c4c3)c2)C1=O [Example 109, (R)-3-((3-(4-Aminopyrido[2,3-d]pyrimidin-6-yl)phenyl)ethynyl)-3-hydroxy-1-methylpyrrolidin-2-one]
0.6 nM	64 nM	C[C@@](O)(C#Cc1cccc(-c2ccc3ncnc(N)c3c2)c1)c1nccs1 [Example 105, (R)-4-[3-(4-Aminoquinazolin-6-yl)phenyl]-2-thiazol-2-yl-but-3-yn-2-ol]
1 nM	48 nM	Cc1ccc(C#C[C@]2(O)CCN(C)C2=O)cc1-c1ncc2c(C)cnc(N)c2n1 [Example 65, (R)-3-[2-[3-(8-Amino-5-methyl-pyrido[3,4-d]pyrimidin-2-yl)-4-methyl-phenyl]ethynyl]-3-hydroxy-1-methyl-pyrrolidin-2-one]
